Source: PubChem BioAssay (NCI)
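A five-concentration, 48-hour dose response in 96-well plates underlies each endpoint, interpolated linearly between surrounding concentrations. At the TGI there is no net growth.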

Legend:
Assay in all cases: growth of human tumour cells (NCI), 48 h
RXF 393 renal = tested on: RXF 393 renal
COLO 205 colon = tested on: COLO 205 colon
M19-MEL melanoma = tested on: M19-MEL melanoma
DMS 114 small cell lung = tested on: DMS 114 small cell lung
DLD-1 colon = tested on: DLD-1 colon
SNB-78 CNS = tested on: SNB-78 CNS
SW-620 colon = tested on: SW-620 colon
LXFL 529 NSCLC = tested on: LXFL 529 NSCLC
MALME-3M melanoma = tested on: MALME-3M melanoma
A549 NSCLC = tested on: A549 NSCLC
SF-539 CNS = tested on: SF-539 CNS
KM20L2 colon = tested on: KM20L2 colon
HCC-2998 colon = tested on: HCC-2998 colon
HCT-15 colon = tested on: HCT-15 colon
SK-MEL-5 melanoma = tested on: SK-MEL-5 melanoma
OVCAR-5 ovarian = tested on: OVCAR-5 ovarian
SN12C renal = tested on: SN12C renal
KM12 colon = tested on: KM12 colon
SNB-75 CNS = tested on: SNB-75 CNS
786-0 renal = tested on: 786-0 renal
NCI-H522 lung = tested on: NCI-H522 lung
SF-295 CNS = tested on: SF-295 CNS
UO-31 renal = tested on: UO-31 renal
U251 CNS = tested on: U251 CNS
TK-10 renal = tested on: TK-10 renal
UACC-257 melanoma = tested on: UACC-257 melanoma
CCRF-CEM leukemia = tested on: CCRF-CEM leukemia
OVCAR-3 ovarian = tested on: OVCAR-3 ovarian
NCI-H23 lung = tested on: NCI-H23 lung
OVCAR-4 ovarian = tested on: OVCAR-4 ovarian
HL-60(TB) leukemia = tested on: HL-60(TB) leukemia
DMS 273 small cell lung = tested on: DMS 273 small cell lung
HOP-92 NSCLC = tested on: HOP-92 NSCLC
EKVX NSCLC = tested on: EKVX NSCLC
SF-268 CNS = tested on: SF-268 CNS
OVCAR-8 ovarian = tested on: OVCAR-8 ovarian
M14 melanoma = tested on: M14 melanoma
HT29 colon = tested on: HT29 colon
XF 498 CNS = tested on: XF 498 CNS
SK-MEL-28 melanoma = tested on: SK-MEL-28 melanoma
MOLT-4 leukemia = tested on: MOLT-4 leukemia
RPMI-8226 leukemia = tested on: RPMI-8226 leukemia
ACHN renal = tested on: ACHN renal
HOP-62 NSCLC = tested on: HOP-62 NSCLC
NCI-H460 lung = tested on: NCI-H460 lung
SNB-19 CNS = tested on: SNB-19 CNS
HCT-116 colon = tested on: HCT-116 colon
IGROV1 ovarian = tested on: IGROV1 ovarian
SK-MEL-2 melanoma = tested on: SK-MEL-2 melanoma
RXF-631 renal = tested on: RXF-631 renal
K-562 leukemia = tested on: K-562 leukemia
UACC-62 melanoma = tested on: UACC-62 melanoma

Measured: TGI

O=C1c2ccccc2-c2cccc3ccc(Cc4ccccc4)c1c23
> 100 µM: RXF 393 renal | COLO 205 colon | M19-MEL melanoma | DMS 114 small cell lung | DLD-1 colon | SNB-78 CNS | SW-620 colon | LXFL 529 NSCLC | MALME-3M melanoma | A549 NSCLC | SF-539 CNS | KM20L2 colon | HCC-2998 colon | HCT-15 colon | SK-MEL-5 melanoma | OVCAR-5 ovarian | SN12C renal | KM12 colon | SNB-75 CNS | 786-0 renal | NCI-H522 lung | SF-295 CNS | UO-31 renal | U251 CNS | TK-10 renal | UACC-257 melanoma | CCRF-CEM leukemia | OVCAR-3 ovarian | NCI-H23 lung | OVCAR-4 ovarian | HL-60(TB) leukemia | DMS 273 small cell lung | HOP-92 NSCLC | EKVX NSCLC | SF-268 CNS | OVCAR-8 ovarian | M14 melanoma | HT29 colon | XF 498 CNS | SK-MEL-28 melanoma | MOLT-4 leukemia | RPMI-8226 leukemia | ACHN renal | HOP-62 NSCLC | NCI-H460 lung | SNB-19 CNS | HCT-116 colon | IGROV1 ovarian | SK-MEL-2 melanoma | RXF-631 renal | K-562 leukemia | UACC-62 melanoma
